Laboratory results as given in US10131652B2, “Pyrimidinyloxy benzene derivatives as herbicides” (E. I. DU PONT DE NEMOURS AND COMPANY, priority 2014, dated 2018).

Key:
Assay type in all cases: in vivo
rice (Oryza sativa) = test: Test C flooded paddy test plant response; conditions: Flood, 250 g ai/ha; scale of 0 to 100 where 0 is no effect and 100 is complete control; 13 to 15 days
Outline: (§1)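 Scale 0 (no effect) to 100 (complete control), assigned visually versus controls after 13–15 d greenhouse. Application: directly to paddy water, 3 cm flood depth kept constant, 2-leaf stage.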

[1] = tested on: small-flower umbrella sedge (Cyperus difformis); test: Test C flooded paddy test plant response; conditions: Flood, 250 g ai/ha; scale of 0 to 100 where 0 is no effect and 100 is complete control; 13 to 15 days
Outline: as §1

[2] = tested on: barnyardgrass (Echinochloa crus-galli); test: Test C flooded paddy test plant response; conditions: Flood, 250 g ai/ha; scale of 0 to 100 where 0 is no effect and 100 is complete control; 13 to 15 days
Outline: as §1

[3] = tested on: ducksalad (Heteranthera limosa); test: Test C flooded paddy test plant response; conditions: Flood, 250 g ai/ha; scale of 0 to 100 where 0 is no effect and 100 is complete control; 13 to 15 days
Outline: as §1

[4] = tested on: galium (catchweed bedstraw, Galium aparine); test: Test B postemergence plant response
Outline: (§2)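 Visual injury ratings, 0 = no effect to 100 = complete control, versus untreated controls approximately 10 days after postemergence spraying in greenhouse. Plants were at one- to two-leaf stage, 2 to 10 cm tall, in loam soil/sand blend; a dash denotes no result.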

[5] = tested on: blackgrass (Alopecurus myosuroides); test: Test B postemergence plant response
Outline: as §2

[6] = tested on: ragweed (common ragweed, Ambrosia elatior); test: Test B pre-/postemergence plant response
Outline: (§3)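 Visual injury scores on a 0–100 scale (100 = complete control) relative to untreated plants, taken about 10 days post-treatment in greenhouse. Treatments were a directed preemergence soil spray and a postemergence spray at one- to two-leaf stage, using surfactant-containing solvent formulation.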

kochia (Kochia scoparia) = test: Test B pre-/postemergence plant response
Outline: as §3

[7] = tested on: wheat (Triticum aestivum); test: Test B pre-/postemergence plant response
Outline: as §3

corn (Zea mays) = test: Test B pre-/postemergence plant response
Outline: as §3

[8] = tested on: barnyardgrass (Echinochloa crus-galli); test: Test B pre-/postemergence plant response
Outline: as §3

[9] = tested on: Italian ryegrass (Lolium multiflorum); test: Test B pre-/postemergence plant response
Outline: as §3

[10] = tested on: pigweed (Amaranthus retroflexus); test: Test B pre-/postemergence plant response
Outline: as §3

[11] = tested on: giant foxtail (Setaria faberii); test: Test B pre-/postemergence plant response
Outline: as §3

[12] = 125 g ai/ha, postemergence, 0 to 100 scale, 0 no effect, 100 complete control
[13] = Postemergence, 31 g ai/ha, 0 to 100 scale (0 no effect, 100 complete control)
[14] = 31 g ai/ha, Preemergence, 0 to 100 scale where 0 is no effect and 100 is complete control
[15] = Preemergence, 125 g ai/ha, 0 to 100 scale (0 no effect, 100 complete control)

SMILES: N#Cc1cc(-c2ccccc2Oc2ncc(Cl)cn2)on1 [Compound 223]
- Rice plant response rating (rice (Oryza sativa)): 0
- Sedge, Umbrella plant response rating [1]: 70
- Barnyardgrass plant response rating [2]: 0
- Ducksalad plant response rating [3]: 65
- Plant response rating, Galium [4, 12]: 50
- Plant response rating, Galium [4, 13]: 30
- Plant response rating, Blackgrass [5, 12]: 0
- Plant response rating, Blackgrass [5, 13]: 0
- Plant response rating, Ragweed [6, 14]: 0
- Plant response rating, Ragweed [6, 12]: 10
- Plant response rating, Ragweed [6, 13]: 0
- Ragweed plant response rating [6, 15]: 0
- Plant response rating, Kochia (kochia (Kochia scoparia); [14]): 0
- Plant response rating, Kochia (kochia (Kochia scoparia); [12]): 10
- Plant response rating, Kochia (kochia (Kochia scoparia); [13]): 0
- Kochia plant response rating (kochia (Kochia scoparia); [15]): 0
- Plant response rating, Wheat [7, 12]: 0
- Plant response rating, Wheat [7, 13]: 0
- Plant response rating, Corn (corn (Zea mays); [12]): 0
- Plant response rating, Corn (corn (Zea mays); [13]): 0
- Plant response rating, Barnyardgrass [8, 14]: 0
- Plant response rating, Barnyardgrass [8, 12]: 10
- Plant response rating, Barnyardgrass [8, 13]: 0
- Barnyardgrass plant response rating [8, 15]: 0
- Plant response rating, Ryegrass, Italian [9, 14]: 0
- Plant response rating, Ryegrass, Italian [9, 12]: 0
- Plant response rating, Ryegrass, Italian [9, 13]: 0
- Ryegrass, Italian plant response rating [9, 15]: 0
- Plant response rating, Pigweed [10, 14]: 0
- Plant response rating, Pigweed [10, 12]: 60
- Plant response rating, Pigweed [10, 13]: 20
- Pigweed plant response rating [10, 15]: 10
- Plant response rating, Foxtail, Giant [11, 14]: 0
- Plant response rating, Foxtail, Giant [11, 12]: 10
- Plant response rating, Foxtail, Giant [11, 13]: 0
- Foxtail, Giant plant response rating [11, 15]: 0

SMILES: CCOC(=O)c1cc(-c2ccccc2Oc2ncc(Cl)cn2)on1 [Compound 225]
- Rice plant response rating (rice (Oryza sativa)): 0
- Sedge, Umbrella plant response rating [1]: 0
- Barnyardgrass plant response rating [2]: 0
- Ducksalad plant response rating [3]: 0
- Plant response rating, Galium [4, 12]: 0
- Plant response rating, Galium [4, 13]: 0
- Plant response rating, Blackgrass [5, 12]: 0
- Plant response rating, Blackgrass [5, 13]: 0
- Plant response rating, Ragweed [6, 14]: 0
- Plant response rating, Ragweed [6, 12]: 0
- Plant response rating, Ragweed [6, 13]: 0
- Ragweed plant response rating [6, 15]: 0
- Plant response rating, Kochia (kochia (Kochia scoparia); [14]): 0
- Plant response rating, Kochia (kochia (Kochia scoparia); [12]): 0
- Plant response rating, Kochia (kochia (Kochia scoparia); [13]): 0
- Kochia plant response rating (kochia (Kochia scoparia); [15]): 0
- Plant response rating, Wheat [7, 12]: 0
- Plant response rating, Wheat [7, 13]: 0
- Plant response rating, Corn (corn (Zea mays); [12]): 0
- Plant response rating, Corn (corn (Zea mays); [13]): 0
- Plant response rating, Barnyardgrass [8, 14]: 0
- Plant response rating, Barnyardgrass [8, 12]: 0
- Plant response rating, Barnyardgrass [8, 13]: 0
- Barnyardgrass plant response rating [8, 15]: 0
- Plant response rating, Ryegrass, Italian [9, 14]: 0
- Plant response rating, Ryegrass, Italian [9, 12]: 0
- Plant response rating, Ryegrass, Italian [9, 13]: 0
- Ryegrass, Italian plant response rating [9, 15]: 0
- Plant response rating, Pigweed [10, 14]: 0
- Plant response rating, Pigweed [10, 12]: 0
- Plant response rating, Pigweed [10, 13]: 0
- Pigweed plant response rating [10, 15]: 0
- Plant response rating, Foxtail, Giant [11, 14]: 0
- Plant response rating, Foxtail, Giant [11, 12]: 0
- Plant response rating, Foxtail, Giant [11, 13]: 0
- Foxtail, Giant plant response rating [11, 15]: 0

SMILES: FC(F)(F)COc1cc(-c2ccccc2Oc2ncc(Cl)cn2)ncn1 [Compound 227]
- Rice plant response rating (rice (Oryza sativa)): 0
- Sedge, Umbrella plant response rating [1]: 85
- Barnyardgrass plant response rating [2]: 0
- Ducksalad plant response rating [3]: 98
- Plant response rating, Galium [4, 12]: 80
- Plant response rating, Galium [4, 13]: 70
- Plant response rating, Blackgrass [5, 12]: 70
- Plant response rating, Blackgrass [5, 13]: 10
- Plant response rating, Ragweed [6, 14]: 0
- Plant response rating, Ragweed [6, 12]: 30
- Plant response rating, Ragweed [6, 13]: 10
- Ragweed plant response rating [6, 15]: 0
- Plant response rating, Kochia (kochia (Kochia scoparia); [14]): 0
- Plant response rating, Kochia (kochia (Kochia scoparia); [12]): 80
- Plant response rating, Kochia (kochia (Kochia scoparia); [13]): 40
- Kochia plant response rating (kochia (Kochia scoparia); [15]): 50
- Plant response rating, Wheat [7, 12]: 20
- Plant response rating, Wheat [7, 13]: 0
- Plant response rating, Corn (corn (Zea mays); [12]): 20
- Plant response rating, Corn (corn (Zea mays); [13]): 10
- Plant response rating, Barnyardgrass [8, 14]: 10
- Plant response rating, Barnyardgrass [8, 12]: 60
- Plant response rating, Barnyardgrass [8, 13]: 10
- Barnyardgrass plant response rating [8, 15]: 50
- Plant response rating, Ryegrass, Italian [9, 14]: 0
- Plant response rating, Ryegrass, Italian [9, 12]: 30
- Plant response rating, Ryegrass, Italian [9, 13]: 0
- Ryegrass, Italian plant response rating [9, 15]: 10
- Plant response rating, Pigweed [10, 14]: 40
- Plant response rating, Pigweed [10, 12]: 90
- Plant response rating, Pigweed [10, 13]: 60
- Pigweed plant response rating [10, 15]: 80
- Plant response rating, Foxtail, Giant [11, 14]: 40
- Plant response rating, Foxtail, Giant [11, 12]: 60
- Plant response rating, Foxtail, Giant [11, 13]: 10
- Foxtail, Giant plant response rating [11, 15]: 90

SMILES: Clc1cnc(Oc2ccccc2-c2ccsc2)nc1 [Compound 231]
- Rice plant response rating (rice (Oryza sativa)): 0
- Sedge, Umbrella plant response rating [1]: 70
- Barnyardgrass plant response rating [2]: 0
- Ducksalad plant response rating [3]: 65
- Plant response rating, Galium [4, 12]: 20
- Plant response rating, Galium [4, 13]: 0
- Plant response rating, Blackgrass [5, 12]: 0
- Plant response rating, Blackgrass [5, 13]: 0
- Plant response rating, Ragweed [6, 14]: 0
- Plant response rating, Ragweed [6, 12]: 0
- Plant response rating, Ragweed [6, 13]: 0
- Ragweed plant response rating [6, 15]: 0
- Plant response rating, Kochia (kochia (Kochia scoparia); [14]): 0
- Plant response rating, Kochia (kochia (Kochia scoparia); [12]): 40
- Plant response rating, Kochia (kochia (Kochia scoparia); [13]): 20
- Kochia plant response rating (kochia (Kochia scoparia); [15]): 0
- Plant response rating, Wheat [7, 12]: 0
- Plant response rating, Wheat [7, 13]: 0
- Plant response rating, Corn (corn (Zea mays); [12]): 0
- Plant response rating, Corn (corn (Zea mays); [13]): 0
- Plant response rating, Barnyardgrass [8, 14]: 0
- Plant response rating, Barnyardgrass [8, 12]: 10
- Plant response rating, Barnyardgrass [8, 13]: 0
- Barnyardgrass plant response rating [8, 15]: 10
- Plant response rating, Ryegrass, Italian [9, 14]: 0
- Plant response rating, Ryegrass, Italian [9, 12]: 0
- Plant response rating, Ryegrass, Italian [9, 13]: 0
- Ryegrass, Italian plant response rating [9, 15]: 0
- Plant response rating, Pigweed [10, 14]: 0
- Plant response rating, Pigweed [10, 12]: 40
- Plant response rating, Pigweed [10, 13]: 20
- Pigweed plant response rating [10, 15]: 20
- Plant response rating, Foxtail, Giant [11, 14]: 0
- Plant response rating, Foxtail, Giant [11, 12]: 10
- Plant response rating, Foxtail, Giant [11, 13]: 0
- Foxtail, Giant plant response rating [11, 15]: 10

SMILES: Brc1cnc(Oc2ccccc2-c2ccsc2)nc1 [Compound 232]
- Rice plant response rating (rice (Oryza sativa)): 0
- Sedge, Umbrella plant response rating [1]: 0
- Barnyardgrass plant response rating [2]: 0
- Ducksalad plant response rating [3]: 0
- Plant response rating, Galium [4, 12]: 0
- Plant response rating, Galium [4, 13]: 0
- Plant response rating, Blackgrass [5, 12]: 0
- Plant response rating, Blackgrass [5, 13]: 0
- Plant response rating, Ragweed [6, 14]: 0
- Plant response rating, Ragweed [6, 12]: 0
- Plant response rating, Ragweed [6, 13]: 0
- Ragweed plant response rating [6, 15]: 0
- Plant response rating, Kochia (kochia (Kochia scoparia); [14]): 0
- Plant response rating, Kochia (kochia (Kochia scoparia); [12]): 0
- Plant response rating, Kochia (kochia (Kochia scoparia); [13]): 0
- Kochia plant response rating (kochia (Kochia scoparia); [15]): 0
- Plant response rating, Wheat [7, 12]: 0
- Plant response rating, Wheat [7, 13]: 0
- Plant response rating, Corn (corn (Zea mays); [12]): 0
- Plant response rating, Corn (corn (Zea mays); [13]): 0
- Plant response rating, Barnyardgrass [8, 14]: 0
- Plant response rating, Barnyardgrass [8, 12]: 0
- Plant response rating, Barnyardgrass [8, 13]: 0
- Barnyardgrass plant response rating [8, 15]: 20
- Plant response rating, Ryegrass, Italian [9, 14]: 0
- Plant response rating, Ryegrass, Italian [9, 12]: 0
- Plant response rating, Ryegrass, Italian [9, 13]: 0
- Ryegrass, Italian plant response rating [9, 15]: 0
- Plant response rating, Pigweed [10, 14]: 20
- Plant response rating, Pigweed [10, 12]: 40
- Plant response rating, Pigweed [10, 13]: 10
- Pigweed plant response rating [10, 15]: 30
- Plant response rating, Foxtail, Giant [11, 14]: 0
- Plant response rating, Foxtail, Giant [11, 12]: 0
- Plant response rating, Foxtail, Giant [11, 13]: 0
- Foxtail, Giant plant response rating [11, 15]: 10
